Assay results taken from ChEMBL document CHEMBL1201862, “PubChem BioAssay data set” (2004).
The source made the active and inactive calls.

Columns and labels:
INS1 = assay: beta cell apoptosis inhibitors, cytokine rescue, dose response, luminescence, retest (AID 449756); type: functional, cell-based; settings: Rattus norvegicus;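 note: cell death triggered by IL-1 beta plus TNF-alpha plus IFN-gamma mixture; protective hits raise ATP signal compared with cytokine alone wells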
[1] = HepG2 cell cytotoxicity, dose response, cytotoxicity control for non-replicating M. tuberculosis project (AID 489018); type: functional; settings: Mycobacterium tuberculosis
[2] = Vero E6 cell cytotoxicity, dose response, cytotoxicity control for non-replicating M. tuberculosis project, secondary assay (AID 492998); type: functional, VeroE6; settings: Vero C1008
BJ [3] = assay: cytotoxicity toward BJ-TERT-LT-ST fibroblasts, dose response, cell-based, RAS-independent, luminescence (AID 1935); type: functional; settings: Homo sapiens;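 note: BJ fibroblasts immortalized with TERT plus LT and ST oncogenes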
[4] = microbe, parasite or virus in culture; type: functional; settings: Mycobacterium tuberculosis
BJ [5] = assay: cells; type: functional, cell-based; settings: Homo sapiens
[6] = cytotoxicity toward DRD oncogenic fibroblasts, dose response, cell-based, non-viral oncogenic, luminescence (AID 1934); type: functional; settings: Homo sapiens
[7] = THP-1 cell cytotoxicity, dose response, cytotoxicity control for non-replicating M. tuberculosis project (AID 489025); type: functional
BJ [8] = assay: cytotoxicity toward BJ-TERT fibroblasts, dose response, cell-based, RAS-independent, luminescence (AID 1933); type: functional; settings: Homo sapiens
[9] = molecular target: T1, Microphthalmia-associated transcription factor (Homo sapiens, UniProt O75030); assay: TRPM1 promoter luciferase signal decrease, dose response, MITF inhibitor project, cell-based, SK-MEL-5, cherry-picked, set 3 (AID 493073); type: functional
T1 sequence (O75030 whole entry): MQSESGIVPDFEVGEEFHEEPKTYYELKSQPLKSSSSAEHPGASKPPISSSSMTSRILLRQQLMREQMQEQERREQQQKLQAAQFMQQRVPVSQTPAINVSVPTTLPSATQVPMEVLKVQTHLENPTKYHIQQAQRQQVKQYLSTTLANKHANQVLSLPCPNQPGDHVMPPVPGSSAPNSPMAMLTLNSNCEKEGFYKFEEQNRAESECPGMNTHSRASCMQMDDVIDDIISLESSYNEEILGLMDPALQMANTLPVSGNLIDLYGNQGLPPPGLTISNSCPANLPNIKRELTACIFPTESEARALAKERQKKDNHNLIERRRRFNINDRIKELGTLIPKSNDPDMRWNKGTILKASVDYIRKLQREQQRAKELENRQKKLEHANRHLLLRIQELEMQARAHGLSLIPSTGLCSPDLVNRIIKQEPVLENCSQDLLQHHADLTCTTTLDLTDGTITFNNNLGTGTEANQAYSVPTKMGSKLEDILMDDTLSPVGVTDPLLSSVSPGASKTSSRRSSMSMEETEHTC

Estrogen receptor beta [10] = molecular target: T2, Estrogen receptor beta (Homo sapiens, UniProt Q92731);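 note: recombinant ER-beta bound to coactivator SRC1 peptide in presence of estradiol agonist; inhibitors block coactivator peptide binding and lower the FRET signal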
Estrogen receptor = Estrogen receptor (Homo sapiens, UniProt P03372);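 note: potency for inhibiting coactivator peptide recruitment to the receptor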
[11] = Luminescence Cell-Based Dose Confirmation HTS to Identify Activators of 5'UTR Stem-Loop Driven Alpha-Synuclein mRNA Translation in H4 Neuroglioblastoma Cells. [Related pubchem assays: 1829 (Project Summary), 1814 (Primary HTS)]; type: functional
[12] = Luminescence Cell-Based Dose Response to Identify Activators of 5'UTR Stem-Loop Driven Prion Protein mRNA Translation in H4-C Neuroglioblastoma Cells. [Related pubchem assays: 1829 (Project Summary), 1814 (Primary HTS)]; type: functional
[13] = Luminescence Cell-Based Dose Response to Identify Activators of Luciferase Translation or Activity in H4-C Neuroglioblastoma Cells. [Related pubchem assays: 1829 (Project Summary), 1814 (Primary HTS)]; type: functional
[14] = Luminescence Cell-Based Dose Response HTS to Identify Activators of Luciferase Translation or Activity in H4 […] Cells. [Related pubchem assays: 1829 (Project Summary), 1814 (Primary HTS)]; type: functional
H4 = assay: Luminescence Cell-Based Dose Response HTS to Identify Activators of 5'UTR Stem-Loop Driven Prion Protein mRNA Translation in H4 Neuroglioblastoma Cells. [Related pubchem assays: 1829 (Project Summary), 1814 (Primary HTS)]; type: functional; settings: Homo sapiens
[15] = Luminescence Cell-Based Dose Confirmation to Identify Activators of 5'UTR Stem-Loop Driven Alpha-Synuclein mRNA Translation in H4 Neuroglioblastoma Cells. [Related pubchem assays: 1829 (Project Summary), 1814 (Primary HTS)]; type: functional
[16] = molecular target: T3, Neuropeptide Y receptor type 1 (Homo sapiens, UniProt P25929); type: functional;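 note: HEK293 cells with a CNG channel challenged with NPY then isoproterenol; potency as antagonist that reverses NPY suppression of cAMP signal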
T3 sequence (P25929 whole entry): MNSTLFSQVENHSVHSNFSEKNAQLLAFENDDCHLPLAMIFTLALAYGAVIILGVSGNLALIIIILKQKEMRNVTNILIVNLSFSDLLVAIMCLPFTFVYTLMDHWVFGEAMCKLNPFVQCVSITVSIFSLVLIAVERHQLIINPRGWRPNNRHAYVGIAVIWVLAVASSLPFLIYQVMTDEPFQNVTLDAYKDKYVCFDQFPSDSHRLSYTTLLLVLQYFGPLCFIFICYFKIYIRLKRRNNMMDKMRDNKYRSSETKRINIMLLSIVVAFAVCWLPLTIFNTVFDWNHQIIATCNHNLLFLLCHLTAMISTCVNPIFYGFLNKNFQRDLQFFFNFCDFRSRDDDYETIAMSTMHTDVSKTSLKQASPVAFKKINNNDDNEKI

[17] = molecular target: T4, Neuropeptide Y receptor type 2 (Homo sapiens, UniProt P49146); type: functional, cell-based;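 note: HEK293 cells expressing the receptor and a CNG channel; stimulus was NPY near EC95 followed by isoproterenol to raise cAMP; antagonist potency measured as restoring cAMP signal that NPY suppresses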
T4 sequence (P49146 whole entry): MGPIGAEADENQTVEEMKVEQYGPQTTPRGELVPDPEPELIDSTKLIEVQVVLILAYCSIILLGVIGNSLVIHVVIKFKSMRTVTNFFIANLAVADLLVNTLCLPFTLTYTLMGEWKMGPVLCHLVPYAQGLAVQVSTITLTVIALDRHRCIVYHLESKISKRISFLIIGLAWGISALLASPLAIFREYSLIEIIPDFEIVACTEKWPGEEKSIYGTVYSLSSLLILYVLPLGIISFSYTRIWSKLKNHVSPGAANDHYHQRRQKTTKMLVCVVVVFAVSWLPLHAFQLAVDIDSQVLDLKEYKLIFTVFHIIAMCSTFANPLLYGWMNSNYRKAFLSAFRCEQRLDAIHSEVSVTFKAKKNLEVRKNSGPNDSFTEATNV

[18] = molecular target: Peroxisome proliferator-activated receptor gamma/Nuclear receptor coactivator 3 (Homo sapiens, UniProt P37231); type: functional;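 note: agonist potency for raising coactivator recruitment to the receptor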
[19] = molecular target: Peroxisome proliferator-activated receptor gamma/Nuclear receptor coactivator 1 (Homo sapiens, UniProt P37231); type: functional;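 note: agonist potency as compounds enhance coactivator SRC-1 recruitment to PPARgamma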
[20] = molecular target: Peroxisome proliferator-activated receptor gamma/Nuclear receptor coactivator 2 (Homo sapiens, UniProt P37231); type: functional;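 note: agonist potency for raising coactivator recruitment to the receptor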
[21] = molecular target: Protein-tyrosine kinase 2-beta (Homo sapiens, UniProt Q14289);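 note: potency of inhibitors of PYK2 kinase phosphorylation of poly-GT substrate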
[22] = Luminescence Cell-Based Dose Response HTS to Identify Inhibitors of 5'UTR Stem-Loop Driven Prion Protein mRNA Translation in H4 Neuroglioblastoma Cells. [Related pubchem assays: 1827 (Project Summary), 1813 (Primary HTS)]; type: functional
Estrogen receptor beta [23] = molecular target: T2, Estrogen receptor beta; assay: ERβ–SRC-3 coactivator interaction inhibitors, confirmation, orthogonal assay, biochemical, ELISA, streptavidin-HRP readout (AID 1060)
[24] = inhibitors of SNCA 5'UTR-driven reporter translation, confirmation, H4 neuroglioma cells, luminescence (AID 1988); type: functional, cell-based
Streptococcus = assay: Group A Streptococcus viability loss, dose response, counter-screen for streptokinase expression inhibitor project, luminescence, BacTiterGlo (AID 1915); type: functional, organism-based;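 note: potency for reduction of bacterial viability or growth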
[25] = tested on: Streptococcus sp. 'group A'; assay: growth inhibition of control SK(-) GAS strain, dose response, counter-screen for streptokinase expression inhibitor project, luminescence, kanamycin, BacTiterGlo, confirmation (AID 1900); type: functional, organism-based
Oxytocin receptor = Oxytocin receptor (Homo sapiens, UniProt P30559); assay: Counterscreen for vasopressin 1 receptor (V1R) agonists: Fluorescence-based cell-based high throughput dose response assay for agonists of the Oxytocin Receptor (OXTR). [Related pubchem assays: 2435 (Primary screen (OXTR agonists in singlicate)), 434964 (Confirmation screen (V1R agonists in triplicate)), 434969 (Counterscreen (OXTR agonists in …; type: functional
Vasopressin V1a receptor = Vasopressin V1a receptor (Homo sapiens, UniProt P37288); assay: Fluorescence-based cell-based high throughput dose response screening assay for agonists of the vasopressin 1 receptor (V1R).; type: functional
[26] = molecular target: T5, Short transient receptor potential channel 4 (Mus musculus, UniProt Q9QUQ5); assay: mouse TRPC4 channel activators, dose response, cell-based, HEK293 TRPC4/mu-opioid, Fluo-4 calcium (AID 434937); type: functional
T5 sequence (Q9QUQ5 whole entry): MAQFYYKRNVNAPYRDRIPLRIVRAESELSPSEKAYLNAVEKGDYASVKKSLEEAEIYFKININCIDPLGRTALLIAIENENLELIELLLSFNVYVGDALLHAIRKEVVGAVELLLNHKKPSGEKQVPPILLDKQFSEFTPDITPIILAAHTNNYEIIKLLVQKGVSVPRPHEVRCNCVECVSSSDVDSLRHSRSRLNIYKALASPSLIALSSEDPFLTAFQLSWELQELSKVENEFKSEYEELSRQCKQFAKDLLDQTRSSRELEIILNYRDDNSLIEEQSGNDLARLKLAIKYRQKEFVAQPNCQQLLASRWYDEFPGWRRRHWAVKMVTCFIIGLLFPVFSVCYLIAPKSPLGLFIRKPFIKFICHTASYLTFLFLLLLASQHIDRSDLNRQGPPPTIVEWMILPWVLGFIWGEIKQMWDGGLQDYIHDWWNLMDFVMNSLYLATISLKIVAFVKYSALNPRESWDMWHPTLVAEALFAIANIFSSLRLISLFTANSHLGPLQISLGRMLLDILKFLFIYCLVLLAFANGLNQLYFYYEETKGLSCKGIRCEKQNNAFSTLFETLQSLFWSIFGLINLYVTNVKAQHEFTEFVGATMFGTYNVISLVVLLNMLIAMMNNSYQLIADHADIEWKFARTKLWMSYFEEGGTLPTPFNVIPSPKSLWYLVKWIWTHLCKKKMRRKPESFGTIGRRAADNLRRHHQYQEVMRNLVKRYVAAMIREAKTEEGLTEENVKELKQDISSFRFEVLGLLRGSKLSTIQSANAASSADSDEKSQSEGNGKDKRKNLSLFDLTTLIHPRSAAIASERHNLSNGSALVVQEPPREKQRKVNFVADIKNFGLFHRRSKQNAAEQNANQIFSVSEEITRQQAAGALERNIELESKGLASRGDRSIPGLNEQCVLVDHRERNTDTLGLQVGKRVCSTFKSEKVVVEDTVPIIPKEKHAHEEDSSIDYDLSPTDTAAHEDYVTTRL

[27] = molecular target: 72 kDa type IV collagenase (Homo sapiens, UniProt P08253); assay: Dose Response validation of uHTS RPN11 inhibitor hits using a MMP-2 Fluorescence assay.; type: functional
[28] = molecular target: 26S proteasome non-ATPase regulatory subunit 14 (Homo sapiens, UniProt O00487); assay: inhibition of proteasome subunit RPN11 – biochemical, fluorescence polarization, uHTS hits, confirmation (AID 602368); type: functional
[29] = inhibitors of intracellular T. cruzi replication, confirmation, NIH3T3 host cells, beta-gal luminescence (AID 2044); type: functional, cell-based;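 note: intracellular parasites grown in NIH/3T3 mouse fibroblasts as host cells; luminescent beta-galactosidase reporter signal from transgenic T. cruzi replicating inside host cells; inhibitors lower the luminescence signal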
[30] = cytotoxicity toward NIH3T3 fibroblasts, dose response, counter-screen, cell-based, ATP luminescence, mouse fibroblasts (AID 2010); type: functional;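 note: cells exposed to compound for about 90 hours before reading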
Prothrombin = Prothrombin (Bos taurus, UniProt P00735); assay: thrombin inhibition, dose response, biochemical, fluorescence polarization, uHTS hits (AID 602369); type: functional

T2 sequence (Q92731 whole entry): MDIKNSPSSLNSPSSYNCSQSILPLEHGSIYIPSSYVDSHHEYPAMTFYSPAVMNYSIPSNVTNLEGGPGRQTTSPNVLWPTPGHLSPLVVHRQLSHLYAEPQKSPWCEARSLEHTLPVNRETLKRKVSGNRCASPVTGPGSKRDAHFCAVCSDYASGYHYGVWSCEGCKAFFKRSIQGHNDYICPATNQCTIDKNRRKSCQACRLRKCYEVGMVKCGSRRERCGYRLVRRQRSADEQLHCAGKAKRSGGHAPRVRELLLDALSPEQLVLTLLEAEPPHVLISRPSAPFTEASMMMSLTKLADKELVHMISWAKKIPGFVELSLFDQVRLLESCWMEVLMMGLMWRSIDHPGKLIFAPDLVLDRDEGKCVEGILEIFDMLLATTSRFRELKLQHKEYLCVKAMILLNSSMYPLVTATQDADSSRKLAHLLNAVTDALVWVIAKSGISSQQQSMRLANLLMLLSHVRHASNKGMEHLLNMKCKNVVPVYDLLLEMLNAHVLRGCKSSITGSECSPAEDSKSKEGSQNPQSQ
Estrogen receptor, sequence (P03372 whole entry): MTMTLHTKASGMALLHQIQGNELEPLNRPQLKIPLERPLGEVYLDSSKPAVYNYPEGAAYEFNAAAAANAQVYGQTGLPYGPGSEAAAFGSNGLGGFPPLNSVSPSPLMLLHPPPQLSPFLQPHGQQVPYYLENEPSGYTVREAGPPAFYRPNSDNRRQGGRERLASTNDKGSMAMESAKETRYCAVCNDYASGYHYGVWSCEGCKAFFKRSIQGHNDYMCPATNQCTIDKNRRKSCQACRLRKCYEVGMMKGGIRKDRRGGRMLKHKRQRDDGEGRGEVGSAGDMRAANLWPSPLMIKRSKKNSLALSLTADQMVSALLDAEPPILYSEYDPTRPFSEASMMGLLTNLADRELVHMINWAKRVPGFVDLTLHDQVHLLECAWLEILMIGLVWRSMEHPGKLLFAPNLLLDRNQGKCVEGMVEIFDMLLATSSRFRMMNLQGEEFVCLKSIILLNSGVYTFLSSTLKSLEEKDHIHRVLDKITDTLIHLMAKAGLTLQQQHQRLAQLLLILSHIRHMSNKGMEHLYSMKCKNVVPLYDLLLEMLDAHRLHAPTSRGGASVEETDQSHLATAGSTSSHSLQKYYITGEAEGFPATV
Protein-tyrosine kinase 2-beta, sequence (Q14289 whole entry): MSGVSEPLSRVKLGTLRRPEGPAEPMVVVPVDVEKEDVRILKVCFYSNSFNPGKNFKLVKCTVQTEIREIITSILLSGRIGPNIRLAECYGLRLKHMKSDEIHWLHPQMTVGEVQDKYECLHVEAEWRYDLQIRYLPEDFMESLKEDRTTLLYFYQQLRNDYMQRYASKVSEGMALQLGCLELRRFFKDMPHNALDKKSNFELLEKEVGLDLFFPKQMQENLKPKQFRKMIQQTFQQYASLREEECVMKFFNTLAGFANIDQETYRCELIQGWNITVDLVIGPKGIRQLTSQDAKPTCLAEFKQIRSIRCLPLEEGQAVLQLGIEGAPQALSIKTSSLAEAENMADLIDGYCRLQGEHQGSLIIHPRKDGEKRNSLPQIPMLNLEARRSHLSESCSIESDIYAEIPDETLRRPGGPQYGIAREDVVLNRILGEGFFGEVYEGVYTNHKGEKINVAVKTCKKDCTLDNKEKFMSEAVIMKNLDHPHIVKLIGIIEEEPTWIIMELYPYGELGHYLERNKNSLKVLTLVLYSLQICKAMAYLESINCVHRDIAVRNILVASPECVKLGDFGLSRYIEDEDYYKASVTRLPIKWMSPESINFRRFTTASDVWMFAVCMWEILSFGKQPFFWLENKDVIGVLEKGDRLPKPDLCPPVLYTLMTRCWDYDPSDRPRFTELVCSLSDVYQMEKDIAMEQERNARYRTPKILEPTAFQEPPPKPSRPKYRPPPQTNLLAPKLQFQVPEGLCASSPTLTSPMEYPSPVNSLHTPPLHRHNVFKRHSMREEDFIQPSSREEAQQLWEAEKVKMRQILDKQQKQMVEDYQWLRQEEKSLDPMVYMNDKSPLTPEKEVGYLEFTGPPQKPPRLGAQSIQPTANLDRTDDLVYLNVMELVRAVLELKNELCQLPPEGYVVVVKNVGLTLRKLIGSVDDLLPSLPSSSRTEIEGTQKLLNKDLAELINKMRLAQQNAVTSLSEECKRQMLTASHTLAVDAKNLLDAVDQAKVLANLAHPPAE
26S proteasome non-ATPase regulatory subunit 14, sequence (O00487 whole entry): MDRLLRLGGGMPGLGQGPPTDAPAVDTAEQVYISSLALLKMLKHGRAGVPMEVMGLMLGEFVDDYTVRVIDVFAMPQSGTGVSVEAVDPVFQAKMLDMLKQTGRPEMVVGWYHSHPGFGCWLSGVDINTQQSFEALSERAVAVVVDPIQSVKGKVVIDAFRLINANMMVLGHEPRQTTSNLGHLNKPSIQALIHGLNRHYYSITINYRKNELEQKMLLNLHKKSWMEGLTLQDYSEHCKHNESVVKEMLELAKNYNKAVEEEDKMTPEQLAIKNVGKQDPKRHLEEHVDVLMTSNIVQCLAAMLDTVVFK
72 kDa type IV collagenase, sequence (P08253 whole entry): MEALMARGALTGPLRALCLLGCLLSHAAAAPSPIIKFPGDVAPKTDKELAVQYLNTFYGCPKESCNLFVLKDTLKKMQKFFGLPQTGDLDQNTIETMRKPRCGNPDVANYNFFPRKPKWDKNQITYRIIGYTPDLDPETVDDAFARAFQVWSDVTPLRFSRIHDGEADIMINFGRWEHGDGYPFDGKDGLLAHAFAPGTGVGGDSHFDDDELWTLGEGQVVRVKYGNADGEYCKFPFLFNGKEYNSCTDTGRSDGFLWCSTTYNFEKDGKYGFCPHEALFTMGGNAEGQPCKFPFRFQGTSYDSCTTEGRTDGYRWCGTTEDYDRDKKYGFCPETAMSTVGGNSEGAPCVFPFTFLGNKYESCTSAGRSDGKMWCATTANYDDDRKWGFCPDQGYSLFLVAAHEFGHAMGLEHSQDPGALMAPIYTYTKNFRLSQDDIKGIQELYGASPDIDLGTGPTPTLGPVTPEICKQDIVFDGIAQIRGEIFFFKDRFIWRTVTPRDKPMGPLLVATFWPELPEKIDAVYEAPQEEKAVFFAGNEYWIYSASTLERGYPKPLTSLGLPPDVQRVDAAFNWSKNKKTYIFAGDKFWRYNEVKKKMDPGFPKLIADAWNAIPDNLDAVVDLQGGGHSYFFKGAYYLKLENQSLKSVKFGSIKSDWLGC
Oxytocin receptor, sequence (P30559 whole entry): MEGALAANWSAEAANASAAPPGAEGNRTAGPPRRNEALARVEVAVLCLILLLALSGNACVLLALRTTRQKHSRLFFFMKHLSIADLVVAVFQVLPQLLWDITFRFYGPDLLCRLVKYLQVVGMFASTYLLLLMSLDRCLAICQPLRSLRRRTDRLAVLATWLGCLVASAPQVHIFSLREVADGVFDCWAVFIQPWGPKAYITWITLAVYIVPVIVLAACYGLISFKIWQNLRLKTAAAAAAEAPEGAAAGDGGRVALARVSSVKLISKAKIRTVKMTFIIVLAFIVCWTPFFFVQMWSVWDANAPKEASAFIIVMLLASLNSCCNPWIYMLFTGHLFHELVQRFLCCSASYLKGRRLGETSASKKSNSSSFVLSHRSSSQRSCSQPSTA
Vasopressin V1a receptor, sequence (P37288 whole entry): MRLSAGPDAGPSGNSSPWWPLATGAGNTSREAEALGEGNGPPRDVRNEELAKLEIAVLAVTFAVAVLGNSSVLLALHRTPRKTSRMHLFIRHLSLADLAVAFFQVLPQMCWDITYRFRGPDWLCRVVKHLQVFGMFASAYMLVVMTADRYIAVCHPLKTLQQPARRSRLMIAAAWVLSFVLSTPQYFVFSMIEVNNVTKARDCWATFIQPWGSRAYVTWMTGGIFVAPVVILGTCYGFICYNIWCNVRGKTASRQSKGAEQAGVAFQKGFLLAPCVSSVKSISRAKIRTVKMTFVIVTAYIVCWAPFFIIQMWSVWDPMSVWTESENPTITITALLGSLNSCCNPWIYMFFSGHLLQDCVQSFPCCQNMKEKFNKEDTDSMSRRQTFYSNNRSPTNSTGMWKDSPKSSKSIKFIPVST

CCOc1ccc(OCc2ccc(C(=O)N/N=C(\C)c3ccccn3)cc2)cc1
AC50 (INS1): 0.712 µM (active) | CC50 [1]: 5.83 µM (active) | CC50 [2]: 3.37 µM (active) | EC50 (BJ [3]): 3.92 µM (inconclusive) | CC50 [4]: 4.15 µM (active) | EC50 (BJ [5]): 1.25 µM (active) | EC50 [6]: 25.4 µM (inconclusive) | CC50 [7]: 1.37 µM (active) | EC50 (BJ [8]): 0.75 µM (active) | AC50 [9]: 3.64 µM (active)

O=C(c1cc(-c2ccco2)on1)N1CCc2ccccc2C1
IC50 (Estrogen receptor beta [10]): > 50 µM (not active) | IC50 (Estrogen receptor): 32.5 µM (not active)

Cc1nc2ccc(NC(=O)c3ccc(Cl)s3)cc2s1
EC50 [11]: < 0.1 µM (active) | EC50 [12]: 0.443 µM (active) | EC50 [13]: 0.491 µM (active) | EC50 [14]: < 0.1 µM (active) | EC50 (H4): 12.5 µM (active) | EC50 [15]: 0.363 µM (active)

CCN(CC)CC(O)COc1ccc2c(c1)c(C(C)=O)c(C)n2-c1ccccc1 (centres undefined)
IC50 [16]: 4.37 µM (active) | IC50 [17]: 6.95 µM (active)

COc1ccc(C2C(=O)c3ccccc3C2=O)c(OC)c1
EC50 [12]: > 12 µM (not active) | EC50 [13]: > 12 µM (not active) | EC50 [14]: < 0.1 µM (inconclusive) | EC50 [15]: 0.104 µM (inconclusive)

COc1ccc(CCN(Cc2nc(O)c3ccccc3n2)C(=O)c2ccco2)cc1OC
EC50 [18]: > 79.4 µM (not active) | EC50 [19]: > 79.4 µM (not active) | EC50 [20]: > 79.4 µM (not active)

COc1cc(C2Nc3ccc4ncccc4c3C3=C2C(=O)CCC3)cc(OC)c1O (centres undefined)
IC50 [21]: 12.7 µM (not active)

CCCNC(=O)c1ccc(-c2nc3ccccc3s2)s1
EC50 [22]: 10.7 µM (inconclusive) | IC50 (Estrogen receptor beta [10]): > 50 µM (not active) | IC50 (Estrogen receptor beta [23]): 102 µM (not active) | EC50 [24]: 7.23 µM (active) | IC50 (Estrogen receptor): 30.3 µM (not active)

O=c1c2cc(Br)ccc2nc(-c2cccc(Cl)c2)n1O
EC50 (Streptococcus): 2.86 µM (active) | EC50 [25]: 1.13 µM (active) | EC50 (Oxytocin receptor): > 9.97 µM (active) | EC50 (Vasopressin V1a receptor): 6.68 µM (active) | EC50 [26]: 9.44 µM (active)

CC(C)c1ccc(-c2nnn(Cc3nc4ccccc4s3)n2)cc1
IC50 [16]: 5.68 µM (active) | IC50 [17]: 4.61 µM (active)

COC(=O)c1[nH]c2ccc(C)cc2c1NC(=O)CN1CCCc2ccccc21
IC50 [27]: > 100 µM (inactive) | EC50 (cells): 0.639 µM (active) | IC50 [28]: 16.7 µM (active) | IC50 (Estrogen receptor beta [10]): < 1.56 µM (active) | IC50 (Estrogen receptor beta [23]): 1.03 µM (not active) | EC50 [29]: < 0.1 µM (active) | IC50 [21]: 15.2 µM (not active) | EC50 [30]: > 60 µM (not active) | IC50 (Prothrombin): > 100 µM (inactive)
